In paper PMC9669016, “First-in-human phase Ia study of the PI3Kα inhibitor CYH33 in patients with solid tumors” (Nature Communications, 2022):

Test system: patients with advanced solid tumors
Assay: Phase Ia safety, tolerability, DLT/MTD (TRAEs graded by NCI-CTCAE v4.03)
Format: in vivo
Excerpt: This is a phase I clinical study (ClinicalTrials.gov identifier: NCT03544905), including a phase Ia study of oral CYH33 monotherapy in patients with advanced solid tumors, and a phase Ib study of oral CYH33 monotherapy focused on several specific tumors. […] The phase Ia study included dose-escalation stage and dose-expansion stage. […] The secondary outcomes also included evaluation of changes in PD biomarkers in response to CYH33 treatment (including proteomics of blood specimens at baseline and during treatment, immunocyte subpopulation ratios and molecular markers, cell free DNA in peripheral blood, and blood glucose). However, in compliance with the local human genetic resource regulations and procedures, peripheral blood samples were not obtained for PD biomarker analysis, therefore, only fasting blood glucose was obtained and used as a PD biomarker for CYH33 treatment. The exploratory objective was the relationship between the efficacy of CYH33 treatment and tumor biomarker status.
An accelerated titration design (ATD) and an mTPI-2 design were adopted to guide toxicity monitoring and dose escalation. The target DLT rate was 30%, with the acceptable toxicity probability interval of (0.25, 0.35). For the first two preset doses of 1 mg and 5 mg CYH33 in the ATD phase, if there were no grade ≥2 TRAEs during the DLT observation period, 100% dose escalation was allowed in the subsequent dose group. After entering the mTPI-2 phase, the SMC guidance was followed to determine the dose level, dosing frequency, and number of subjects in the next dose group, based on the previously obtained safety and PK data for that dose group. If necessary, it was permitted to add an additional dose level between two explored dose levels for further investigation.
During the phase Ia study, the safe and probably effective dose will be delivered to the expansion cohort to further investigate the safety, tolerability and efficacy of this dose level, while the dose escalation study can be continued simultaneously. If necessary, it is permitted to insert a new dose level between two explored dose levels for exploration. The subjects to be enrolled in the expansion cohort are patients with advanced solid tumors with PIK3CA gene mutations. When there are two or more dose groups at dose expansion simultaneously, the allocation ratio of the number of subjects in each dose group should be as close as possible to the ratio of ORR in each dose group. In principle, when the cumulative ORR at a certain dose level is <10%, the number of subjects in this dose group will be determined by the SMC. A total of approximately 60 patients are expected to be enrolled in the whole phase Ia study.
The secondary endpoints included preliminary efficacy assessments based on ORR, PFS, DoR, DCR, and clinical benefit rate, assessed per RECIST 1.1,PK parameters for CYH33 and its metabolite I27, and changes in PD biomarkers in response to CYH33 treatment.

[1] = all patients 1–60 mg QD, n = 51

## COC(=O)Nc1cc(C(F)(F)F)c(-c2nc(N3CCOCC3)c3cc(CN4CCN(S(C)(=O)=O)CC4)cn3n2)cn1 [CYH33, methyl (5-(6-((4-(methylsulfonyl)piperazin-1-yl)methyl)−4-morpholinopyrrolo[2,1-f][1,2,4]triazin-2-yl)−4-(trifluoromethyl)pyridin-2-yl)carbamate]
1–20 mg QD, n = 10
  Generalized oedema, Grade ≥ 3 TRAE: 0 n (%)
  Grade ≥ 3 TRAEs in all patients: 2 (20.0) n (%)
  Hyperglycemia, Grade ≥ 3 TRAE: 2 (20.0) n (%)
  Hyperglycemia, all-grade TRAE: 7 (70.0) n (%)
  Hyponatremia, all-grade TRAE: 0 n (%)
  Mouth ulceration, Grade ≥ 3 TRAE: 0 n (%)
  Mouth ulceration, all-grade TRAE: 1 (10.0) n (%)
  Nausea, Grade ≥ 3 TRAE: 0 n (%)
  Nausea, all-grade TRAE: 3 (30.0) n (%)
  Peripheral edema, Grade ≥ 3 TRAE: 0 n (%)
  Peripheral edema, all-grade TRAE: 1 (10.0) n (%)
  Rash, Grade ≥ 3 TRAE: 0 n (%)
  Rash, all-grade TRAE: 1 (10.0) n (%)
  TRAEs leading to death: 0 n (%)
  TRAEs leading to dose discontinuation: 0 n (%)
  TRAEs leading to dose interruption: 2 (20.0) n (%)
  TRAEs leading to dose reduction: 1 (10.0) n (%)
  TRAEs occurring in ≥ 10% of patients: 7 (70.0) n (%)
  Treatment-related serious adverse events: 0 n (%)
  Vomiting, all-grade TRAE: 3 (30.0) n (%)
  Weight loss, all-grade TRAE: 1 (10.0) n (%)
  White blood cell count decreased, Grade ≥ 3 TRAE: 0 n (%)
QD
  recommended phase 2 dose (RP2D): 40 mg
[1]
  Blood glucose increased, Grade ≥ 3 TRAE: 1 (2.0) n (%)
  Decreased appetite, Grade ≥ 3 TRAE: 1 (2.0) n (%)
  Decreased appetite, all-grade TRAE: 21 (41.2) n (%)
  Diabetic ketosis, Grade ≥ 3 TRAE: 1 (2.0) n (%)
  Diarrhea, Grade ≥ 3 TRAE: 2 (3.9) n (%)
  Diarrhea, all-grade TRAE: 15 (29.4) n (%)
  Dizziness, Grade ≥ 3 TRAE: 1 (2.0) n (%)
  Electrocardiogram QT prolonged, Grade ≥ 3 TRAE: 1 (2.0) n (%)
  Face oedema, Grade ≥ 3 TRAE: 1 (2.0) n (%)
  Facial edema, all-grade TRAE: 8 (15.7) n (%)
  Fatigue, Grade ≥ 3 TRAE: 1 (2.0) n (%)
  Fatigue, all-grade TRAE: 9 (17.6) n (%)
  Generalized oedema, Grade ≥ 3 TRAE: 1 (2.0) n (%)
  Grade ≥ 3 TRAEs in all patients: 33 (64.7) n (%)
  Hyperglycemia, Grade ≥ 3 TRAE: 30 (58.8) n (%)
  Hyperglycemia, all-grade TRAE: 46 (90.2) n (%)
  Hyponatremia, all-grade TRAE: 6 (11.8) n (%)
  Mouth ulceration, Grade ≥ 3 TRAE: 1 (2.0) n (%)
  Mouth ulceration, all-grade TRAE: 6 (11.8) n (%)
  Nausea, Grade ≥ 3 TRAE: 1 (2.0) n (%)
  Nausea, all-grade TRAE: 19 (37.3) n (%)
  Peripheral edema, Grade ≥ 3 TRAE: 4 (7.8) n (%)
  Peripheral edema, all-grade TRAE: 13 (25.5) n (%)
  Rash, Grade ≥ 3 TRAE: 1 (2.0) n (%)
  Rash, all-grade TRAE: 9 (17.6) n (%)
  TRAEs leading to death: 0 n (%)
  TRAEs leading to dose discontinuation: 4 (7.8) n (%)
  TRAEs leading to dose interruption: 36 (70.6) n (%)
  TRAEs leading to dose reduction: 6 (11.8) n (%)
  TRAEs occurring in ≥ 10% of patients: 47 (92.2) n (%)
  Treatment-related serious adverse events: 6 (11.8) n (%)
  Vomiting, all-grade TRAE: 13 (25.5) n (%)
  Weight loss, all-grade TRAE: 16 (31.4) n (%)
  White blood cell count decreased, Grade ≥ 3 TRAE: 1 (2.0) n (%)
All patients, n = 1 each
  serious AEs nausea, vomiting, abdominal pain, dyspnea, hyperglycemia, pyrexia (each): 2.0%
All patients, n = 1 for each
  dose reduction due to peripheral edema, weight loss, mouth ulceration, prolonged electrocardiogram QT (each): 2.0%
All patients, n = 2
  dose reduction due to fatigue: 4.0%
All patients, n = 32 of 51
  hyperglycemia leading to dose interruption: 62.7%
All patients, n = 36 of 51
  patients with dose interruptions due to TRAEs: 70.6%
All patients, n = 51
  Decreased appetite, all-grade TRAE: 41.2%
  Diarrhea, all-grade TRAE: 29.4%
  Facial edema, all-grade TRAE: 15.7%
  Fatigue, all-grade TRAE: 17.6%
  Hyperglycemia, Grade ≥ 3 TRAE: 58.8%
  Hyperglycemia, TRAE at any grade: 90.2%
  Hyponatremia, all-grade TRAE: 11.8%
  Mouth ulceration, all-grade TRAE: 11.8%
  Nausea, all-grade TRAE: 37.3%
  Peripheral edema, all-grade TRAE: 25.5%
  Rash, all-grade TRAE: 17.6%
  Vomiting, all-grade TRAE: 25.5%
  Weight loss, all-grade TRAE: 31.4%
  incidences of all other grade ≥3 TRAEs: < 5%
  treatment-related deaths: No treatment-related deaths
All patients, n = 51 (four patients)
  Peripheral edema, grade 3 TRAE: 7.8%
All patients, six of 51
  patients with dose reductions due to TRAEs: 11.8%
  patients with treatment-associated serious AEs: 11.8%
All patients, three of 51
  patients who permanently discontinued CYH33 due to DLTs: 5.9%
Once daily, single agent, dose-escalation stage (mTPI-2)
  maximum tolerated dose (MTD): 40 mg
